Assay results taken from paper PMC5962679 (Frontiers in Cellular and Infection Microbiology, 2018).
pIC50: −log10 of the molar value. Ends that are not written are not given here.

Key:
Experiment in all cases: biochemical
Type in all cases: binding
Details in all cases: for inhibition at 250 µM: 24 h, read-out: Binding percentage
HLA-DRB1*1101 = HLA-DRB1*1101 (Homo sapiens, UniProt P01903+P01911, A100R/A169T/A87E/I96F/K41T/L162R/M171V/P40S/Q125H/Q178H/Q39Y/Q99D/R42S/S66Y/T262R/V115G/W38E)
HLA-DRB1*0701 = HLA-DRB1*0701 (Homo sapiens, UniProt P01903+P01911, A100R/A102G/A103Q/D57E/D86V/E43K/F76Y/K127E/L162R/M171V/P40G/Q125H/Q99D/R33Q/R42Y/R54Q/S133A/S66F/T210M/V115G/Y107V/Y59L/Y89S)
HLA-DRB1*0401 = molecular target: T1, HLA-DRB1*0401 (Homo sapiens, UniProt P01903+P01911, A100K/A169T/F76Y/I96L/K127E/L162R/M171V/N62H/P40V/Q125Y/R42H/S133A/S149N/S66Y/V115G/V209L/W38E)
T1 construct: homozygous lymphoblastoid B-cell lines (International Histocompatibility Working Group); host or cells: human HLA-DRB1*0401 homozygous lymphoblastoid B-cell line

HLA-DRB1*1302 = HLA-DRB1*1302 (Homo sapiens, UniProt P01903+P01911, A100E/A169T/K41T/L162R/M171V/P40S/Q125H/Q178H/Q39Y/Q99D/R42S/S66N/T262R/V115G/W38E/Y61H)
Sequence of HLA-DRB1*1302 (P01903 26-254 limits assumed, other chains not shown): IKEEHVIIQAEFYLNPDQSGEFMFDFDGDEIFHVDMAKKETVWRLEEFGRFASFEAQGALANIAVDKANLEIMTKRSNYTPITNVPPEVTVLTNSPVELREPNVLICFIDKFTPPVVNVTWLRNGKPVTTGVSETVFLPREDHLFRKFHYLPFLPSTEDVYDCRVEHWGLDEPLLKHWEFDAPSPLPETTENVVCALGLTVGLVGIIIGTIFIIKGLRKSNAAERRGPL

Sequence of HLA-DRB1*1101 (P01903 26-254 limits assumed, other chains not shown): as above

| Sequence | inhibition at 250 µM (HLA-DRB1*1101) [%] | pIC50 (HLA-DRB1*0701) | inhibition at 250 µM (HLA-DRB1*0701) [%] | pIC50 (HLA-DRB1*0401) | inhibition at 250 µM (HLA-DRB1*0401) [%] | inhibition at 250 µM (HLA-DRB1*1302) [%] | pIC50 (HLA-DRB1*1302) | pIC50 (HLA-DRB1*1101) |
| --- | --- | --- | --- | --- | --- | --- | --- | --- |
| RGPVNYHFSNYMNLD [compound 39047] | 0 | 5.22 | 90.4 | 4.26 | 59.8 | 37.8 |  |  |
| LKFIVRGNNLKFLNN [compound 39154] | 24.9 |  | 43.7 |  | 22.2 | 90.1 | 5.19 |  |
| MKLLQHIPANLLENI [compound 39153] | 72.7 | 5.12 | 85.4 | 4.24 | 61.2 | 91.9 | 4.97 | 4.28 |
| LFYVNLFIMSSLSRK [compound 39152] | 91.8 |  | 11 | 5.55 | 65.8 | 94.7 | 5.10 | 5.72 |
